Measurements as given in PMC2667487, “Cellular localization of kinin B1 receptor in the spinal cord of streptozotocin-diabetic rats with a fluorescent [N^α-Bodipy]-des-Arg^9-bradykinin” (Journal of Neuroinflammation, 2009).
Square brackets hold non-standard residues; d marks the D form. Peptide text beside a SMILES is read from it. d2Nal = N[C@H](Cc1ccc2ccccc2c1)C(=O)O

Tests used:
[1] = molecular target: T1, kinin B1R (Rattus norvegicus, UniProt P97583); assay: competition curves by quantitative autoradiography, displacement of [^125I]-HPP-desArg^10-Hoe 140 (B1R); conditions: 200 pM [^125I]-HPP-desArg^10-Hoe 140, competitor 10^-10 to 10^-6 M, thoracic spinal cord sections of STZ-treated rats, 90 min, room temperature, 25 mM PIPES-NH4OH pH 7.4; means ± SEM, 4 sections per rat from 7 rats; read-out: IC50, inhibition of total B1R binding sites
T1 construct: from tissue; host or cells: rat spinal cord sections (autoradiography)
T1 sequence (P97583 1-337): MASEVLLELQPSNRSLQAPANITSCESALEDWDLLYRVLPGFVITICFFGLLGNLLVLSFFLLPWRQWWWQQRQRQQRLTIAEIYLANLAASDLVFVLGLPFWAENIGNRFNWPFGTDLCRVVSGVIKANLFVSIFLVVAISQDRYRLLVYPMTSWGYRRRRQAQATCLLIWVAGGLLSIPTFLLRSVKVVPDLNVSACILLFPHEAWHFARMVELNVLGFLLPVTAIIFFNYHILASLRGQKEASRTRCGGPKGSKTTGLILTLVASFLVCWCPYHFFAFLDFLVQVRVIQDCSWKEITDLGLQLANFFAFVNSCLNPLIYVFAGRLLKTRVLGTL
Experimental: They were iodinated by the chloramine T method. […] At the end of the incubation period, slides were transferred sequentially through four rinses of 4 min each in 25 mM PIPES (pH 7.4; 4°C) dipped for 15s in distilled water (4°C) to remove the excess of salts, and then air-dried. Kodak Scientific Imaging Films BIOMAXTM MR® (Amersham Pharmacia Biotech Canada) were juxtaposed onto the slides in the presence of [^125I]-microscales and exposed at room temperature for 7 days. The films were developed (GBX developer) and fixed (GBX fixer). Autoradiograms were quantified by densitometry using an MCIDTM image analysis system (Imaging Research, St. Catharines, ON, Canada). A standard curve from [^125I]-microscales was used to convert density levels into fentomoles per milligram of protein [48]. Specific binding was determined by subtracting values of nonspecific binding from that of total binding. […] Each concentration of each competitor was tested on 4 sections per rat from 7 different rats. Those sections were exposed to the film, and total binding was calculated as described above. […] All data were expressed as means ± S.E.M. obtained from n rats. Statistical significance was determined with Student's t-test for unpaired samples or a one-way analysis of variance (ANOVA) followed by post-hoc Dunnett test for multiple comparisons.

[2] = tested on: rat model of insulin-resistance; conditions: cited from earlier work
Excerpt: (§1) Importantly, the development of tactile and cold allodynia in a rat model of insulin-resistance was blocked by the B1R antagonist SSR240612 [28] and by two antioxidants (N-acetyl-L-cysteine and alpha-lipoic acid) ...

[3] = tested on: B1R; conditions: cited from earlier work
Excerpt: as §1

Structure (SMILES) | IC50 [1] [nM] | development of tactile and cold allodynia, antioxidants [2] | induction of B1R, antioxidants [3]
CC(=O)N[C@@H](CS)C(=O)O [N-acetyl-L-cysteine] | – | blocked | prevent the induction of B1R
O=C(O)CCCCC1CCSS1 (stereo not drawn) [alpha-lipoic acid] | – | blocked | prevent the induction of B1R

Now from value to compound, other results behind:

IC50 [1] [nM] | Structure (SMILES) | development of tactile and cold allodynia, antioxidants [2] | induction of B1R, antioxidants [3]
5.3 | CC1=CC(C)=[N+]2C1=Cc1ccc(CCC(=O)N[C@@H](CCCNC(=N)N)C(=O)N3CCC[C@H]3C(=O)N3CCC[C@H]3C(=O)NCC(=O)N[C@@H](Cc3ccccc3)C(=O)N[C@@H](CO)C(=O)N3CCC[C@H]3C(=O)N[C@@H](Cc3ccccc3)C(=O)O)n1[B-]2(F)F [BdABK, [N^α-Bodipy]-des-Arg^9-BK] | – | –
4.3 | CC[C@H](C)[C@H](NC(=O)[C@@H](Cc1ccc2ccccc2c1)NC(=O)[C@H](CO)NC(=O)[C@H](Cc1ccccc1)NC(=O)CNC(=O)[C@@H]1CCCN1C(=O)[C@@H]1CCCN1C(=O)[C@H](CCCN=C(N)N)NC(=O)[C@H](CCCCN)NC(C)=O)C(=O)O [R-715, AcLys [D-βNal^7, Ile^8]des-Arg^9-BK] (Ac-KRPPGFS[d2Nal]I-OH) | – | –
19 | N=C(N)NCCC[C@H](N)C(=O)N1CCC[C@H]1C(=O)N1CCC[C@H]1C(=O)NCC(=O)N[C@@H](Cc1ccccc1)C(=O)N[C@@H](CO)C(=O)N1CCC[C@H]1C(=O)N[C@@H](Cc1ccccc1)C(=O)O [des-Arg^9-BK] | – | –
